# Entries after “also recorded” stand apart in the source; their conditions may differ.
# Key:
# [1] = Solubilities of DB-67 in various solvent systems at 25° C. (excess drug, filtration, HPLC); format: physicochemical
# Description: Solubilities of DB-67 or camptothecin in a given solvent system were determined by adding an amount of the drugs well in excess of its estimated solubility to 1-2 mL of the desired solvent in a 4-mL glass vial. The capped vial was rotated in a VWR2010 incubator set at 25° C. for a period of 3-15 days. The sample was then passed through a 0.45 μm filter, except for liposome or emulsion samples, which were passed through a 1.2 μm filter. The collected sample was weighed, diluted with methanol, and analyzed by HPLC. The HPLC system consisted of a Discovery C18 15 cm×4.6 mm column and a Discovery C18 2 cm×4.6 mm 5 μm guard column (Supelco), a Beckman 110B solvent delivery module, a Rheodyne M7125 injector with a […] (Rainin), a Waters M2487 Dual λ Absorbance detector set at 254 nm, an HP 3392A integrator, and a mobile phase of 25% and 41% (v/v) acetonitrile in 2% (w/v) triethylamine acetate for camptothecin and DB-67, respectively.
# The solubility-pH profile for DB-67 in aqueous solution is presented in FIG. 2, where the curve is a […] using an equilibrium model for the base-catalyzed lactone-ring opening and ionization of substituents in DB-67 (10-OH and the —COOH when the lactone-ring is opened at a basic pH).
# [2] = Solubility method to determine complex formation constant with SBE-CD; format: physicochemical
# Description: (§1) To understand the complexation mechanisms behind this solubilization effect, a solubility method was employed to determine the formation constant between a camptothecin analogue and a cyclodextrin derivative. In the solubility experiment, the solution pH was controlled below 4.6 with a 30 mM citrate buffer.
# (§2) In the limit of [CD]>>So, the relevant formation constants can be expressed as: […]
# (§3) where So is the solubility in the absence of cyclodextrins, Kf^1:1 and Kf^1:2 are the 1:1 and 1:2 complex formation constants, and [CD] is concentration of cyclodextrin. A linear least-squares fit of the data for SBE-CD as shown in FIG. 3 yields the complex formation constant of Kf^1:1=8.5±0.2×10^3M^−1(r^2=0.999). […] The inability for SBE-CD to form 1:2 complexes with DB-67 apparently arises from the presence of an average of seven negatively charged sulfobutyl ether groups in a SBE-CD molecule preventing the approach of two SBE-CDs to each other to form 1:2 complexes. A least-squares fit of the data for HP-CD as shown in FIG. 3 according to Equation 1 yields the 1:1 and 1:2 complex formation constants of Kf^1:1=5.8±0.2×10^3M^−1 and […]±0.2 ×10^4M^−1(r^2=1.000).
# [3] = Solubility method to determine complex formation constants with HP-CD; format: physicochemical
# Description: as §1, §2, §3
# [4] = Reaction kinetics of lactone-ring opening and closing (hydrolysis) in aqueous solution by HPLC; format: physicochemical
# Description: The reaction kinetics for the E-ring opened and closed DB-67 were investigated in aqueous solutions at pH 7.4 and 4.0, respectively. The reactions were thermostated at 25±0.1° C. by a circulation water bath and initiated by adding 0.1 mL of reactants (Species I DB-67 in DMSO or Species II DB-67 in 2 mM NaOH; see FIG. 1) to a 30 mM phosphate or acetate buffer solution with an initial reactant concentration of 2-4×10^−6 M. After the addition and at different time intervals, aliquots of the reaction solutions were withdrawn and immediately assayed by HPLC. The concentrations of both species I and II were monitored in order to evaluate the mass balance and other possible degradation products. Simultaneous non-linear least-squares fits of the kinetic profiles yield the first-order rate constants for the lactone-ring opening and closing processes of kopen=1.1±0.1×10^−4 s^−1 and kclose=3.3±0.3×10^−4 s^−1.
# We have also investigated the hydrolysis processes for the lactone-ring intact DB-67 (Species I) at pH 7.4 in the presence of 20% (w/v) SBE-CD and HP-CD, respectively. […] The fitted rate constants are kopen=(7.1±0.1)×10^−5s^−1 and kopen=(6.2±0.1)×10^−5s^−1 for 20% (w/v) SBE-CD and HP-CD, respectively. As noted above, the presence of 20% (w/v) SBE-CD or HP-CD reduces the rate for the lactone-ring opening process by 1.6- and 1.8-fold, respectively. The rate reduction is therefore more marked in the presence of HP-CD.
# [5] = format: physicochemical
# Description: A successful pharmaceutical formulation with a supersaturated drug concentration requires a physical stability with respect to drug precipitation. In our first attempt, 20-25 mg/mL of DB-67 was loaded in DMSO because of the drug's high solubility in this solvent. The dissolved DB-67 was then added slowly to a 20% (w/v) SBE-CD aqueous solution by a volume ratio of 1:9 to achieve a final drug concentration of 2 mg/mL. The dilution rate was maintained at 0.10 mL/min. […] A proper control of the release pattern (local or uniform) and rate of DB-67 into the dilution medium is therefore critical to the success of this type of formulation approach.
# As described above, a slow and uniform release of DB-67 into a dilution medium may be accomplished by employing a chemical approach, namely by converting the E-ring opened DB-67 (Species II, see FIG. 1), which is highly water-soluble, to the neutral E-ring closed DB-67 (Species I) in a controlled fashion. […] Accordingly, 20 mg/mL of DB-67 was loaded in a sodium hydroxide solution with NaOH concentration maintained at twice that of the drug concentration. The prepared DB-67 alkaline aqueous solution was passed through a 0.2 μm filter before it was added slowly (0.11 mL/min) into 20% (w/v) acidic SBE-CD solution by a volume ratio of 1:9. In order to completely neutralize DB-67, HCl was present in the dilution solution in an amount equal to the amount of NaOH in the DB-67 alkaline solution. A small amount of acetate buffer (5 mM) was also included in the dilution medium to control the solution pH to about 4 in order to facilitate a timely conversion from the E-ring opened DB-67 to its E-ring closed counterpart.
# Shortly after the lyophilization, the lyophilized sample was reconstituted and the stability of the reconstituted solution was examined following the same procedure as described above.
# The precipitation profiles of DB-67 solutions containing other solubilizing agents such as liposomes and an acidic aqueous cosolvent solution comprising an equal volume mixture of ethanol and cremophor, prepared as described in Examples 3 and 4, respectively, were evaluated.
# [6] = compared with FDA approved camptothecin analogs (Camptosar and Hycamtin); cited from earlier work
# [7] = HP-CD, E-ring closed DB-67, pH below 4.6, 30 mM citrate buffer, fit to Equation 1
smiles,measurement,setting,value
"CC[C@@]1(O)C(=O)OCc2c1cc1n(c2=O)Cc2c-1nc1ccc(O)cc1c2[Si](C)(C)C(C)(C)C [DB-67, 7-t-butyldimethylsilyl-10-hydroxycamptothecin]",S (solubility),"[1]; 5% Cremophor, 5% (v/v) in 5% (w/v) Dextrose/Water, 25° C., single sample",200 µg/mL
same,S (solubility),"[1]; 10% (v/v) PEG-400/water, 25° C.",(3.3 ± 0.5) × 10^−2 mg/mL
same,S (solubility),"[1]; 40% (w/v) HPCD/water, 25° C.",(4.9 ± 0.2) × 10^−1 mg/mL
same,S (solubility),"[1]; 40% (w/v) SBE-CD/water/1 mM HCl, 25° C.",(2.09 ± 0.04) × 10^−1 mg/mL
same,S (solubility),"[1]; 40% PG, 10% (v/v) EtOH/water, 25° C.",(1.73 ± 0.04) × 10^−1 mg/mL
same,S (solubility),"[1]; 50% (v/v) PEG-400/water, 25° C.",(2.0 ± 0.3) × 10^−1 mg/mL
same,S (solubility),"[1]; 50% Cremophor, 50% (v/v) EtOH (Diluent-12), 25° C.",(7.5 ± 0.2) × 10^0 mg/mL
same,S (solubility),"[1]; Emulsion (20% soybean oil, 2% glycerin, 73% water, 4% Tween80, 1% eggPC), 25° C.",(2.06 ± 0.05) × 10^−1 mg/mL
same,S (solubility),"[1]; Liposome (70:25:5 (mole) DMPC:Chol:DMPG), 25° C.",(7.4 ± 0.3) × 10^−3 mg/mL
same,S (solubility),"[1]; Water/30 mM acetate buffer at pH 5.23, 25° C.",(1.11 ± 0.00) × 10^−5 mg/mL
same,S (solubility),"[1]; Water/0.5 M carbonate buffer at pH 10.20, 25° C., single sample",178 µg/mL
same,solubility in an aqueous solution of acidic pH,"[1]; pH 5.2, DB-67 mostly in E-ring intact form",0.11 μg/mL
same,solubility in an aqueous solution,"[1]; pH >10.2, mostly lactone-ring opened form",~18000 µg/mL
same,DB-67 bound to SBE-CD,"[2]; 20% (w/v) SBE-CD, predominantly 1:1 complexes",more than 99.8%
same,1:1 complex formation constant Kf^1:1,"[2]; SBE-CD, neutral E-ring intact DB-67, pH below 4.6, 30 mM citrate buffer, linear fit r^2=0.999",8.5±0.2×10^3 M^−1
same,DB-67 included in the CD hydrophobic cavity,[3]; 20% (w/v) HP-CD,more than 99.9%
same,complexes in the form of 1:2 complexes,[3]; 20% (w/v) HP-CD,roughly 46%
same,1:1 complex formation constant Kf^1:1,[3]; [7],5.8±0.2×10^3 M^−1
same,1:2 complex formation constant (printed as Kf^1:1),[3]; [7],3.8±0.2 ×10^4 M^−1
same,reduction in the observed rate constant,"[4]; 20% (w/v) HP-CD, pH 7.4",approximately 44%
same,reduction of the rate for the lactone-ring opening process,"[4]; 20% (w/v) HP-CD, pH 7.4",1.8 fold
same,reduction of the rate for the lactone-ring opening process,"[4]; 20% (w/v) SBE-CD, pH 7.4",1.6 fold
same,first-order rate constant for lactone-ring closing kclose,"[4]; pH 4.0, 30 mM buffer, 25° C., no cyclodextrin",3.3±0.3×10^−4 s^−1
same,first-order rate constant for lactone-ring opening kopen,"[4]; pH 7.4, 30 mM buffer, 25° C., no cyclodextrin",1.1±0.1×10^−4 s^−1
same,rate constant kopen,"[4]; pH 7.4, in the presence of 20% (w/v) HP-CD",(6.2±0.1)×10^−5 s^−1
same,rate constant kopen,"[4]; pH 7.4, in the presence of 20% (w/v) SBE-CD",(7.1±0.1)×10^−5 s^−1
same,overall DB-67 concentration in the solution over time,"[5]; 2 mg/mL DB-67, 1:9 dilution of alkaline solution into 20% (w/v) acidic SBE-CD, pH 4.4",remained constant over an extended period of three days
same,time for conversion to E-ring closed DB-67 to be nearly complete,"[5]; 20% (w/v) SBE-CD, measured solution pH 4.4",≤ 100 min
same,precipitation on mechanical mixing of DB-67 in DMSO with 20% (w/v) SBE-CD,"[5]; lactone-intact DB-67 in DMSO diluted into 20% (w/v) SBE-CD aqueous solution, final concentration >1 mg/mL (2 mg/mL, 1:9, 0.10 mL/min)",precipitation occurs immediately; also recorded: precipitation occurred even during the mixing process and continued after the finish of mixing
same,loss of DB-67 during the preparation process,[5]; stable solutions prepared by the present method,< 2%
same,potency in in vitro cytotoxicity assays,[6],comparable potency to other FDA approved camptothecin analogs
